Experimental data: US20080194585A1, “Fungicidal Pyrazine Derivatives” (priority 2005, published 2008)
Read-outs that look alike come from different tables or passages of the source.

Legend:
Rhizoctonia oryzae = test: Test G: turf brown patch, preventive spray on creeping bent grass seedlings; settings: for pest or weed control at 200 ppm: read-out: Test G disease control rating, 200 ppm; for Test G disease control rating: 200 ppm
Description: (the causal agent of turf brown patch) and incubated in a saturated atmosphere at 27° C. for 24 h, and then moved to a growth chamber at 27° C. for 5 days, after which disease ratings were made.

[1] = test system: Colletotrichum orbiculare; test: Test B: cucumber Colletotrichum anthracnose, preventive spray on cucumber seedlings; settings: for pest or weed control at 200 ppm: read-out: Test B disease control rating, 200 ppm; for Test B disease control rating: 200 ppm
Botrytis cinerea = test: Test E: tomato botrytis, preventive spray on tomato seedlings; settings: for Test E disease control rating: 200 ppm
[2] = test system: Erysiphe graminis f. sp. tritici; test: Test L: wheat powdery mildew, preventive spray on wheat seedlings; settings: for pest or weed control at 200 ppm: read-out: Test L disease control rating, 200 ppm; for Test L disease control rating: 200 ppm
fusarium graminearium = test: Test I: wheat head scab, preventive spray on wheat seedlings; settings: for pest or weed control at 200 ppm: read-out: Test I disease control rating, 200 ppm; for Test I disease control rating: 200 ppm
Description: (the causal agent of wheat head scab) and incubated in a saturated atmosphere at 20° C. for 72 h, and then moved to a growth chamber at 22° C. for 5 days, after which disease ratings were made.

Phytophthora infestans = test: whole plant or invertebrate; assay type: in vivo; settings: for Test F disease control rating: 200 ppm
Plasmopara viticola = test: Test D: grape downy mildew, spray after inoculation of grape seedlings; assay type: in vivo; settings: for pest or weed control at 200 ppm / Test D disease control rating: 200 ppm
From the text: Upon removal, disease ratings were made. […] A dash (-) indicates no test results.

Pythium aphanidermatum = test: Test A: bluegrass pythium blight, preventive spray on bluegrass seedlings; settings: for Test A disease control rating: 200 ppm
[3] = test system: Puccinia recondita f. sp. tritici; test: Test K: wheat leaf rust, preventive spray on wheat seedlings; settings: for Test K disease control rating: 200 ppm
Septoria tritici = test: Test J: wheat leaf blotch, preventive spray on wheat seedlings; assay type: in vivo; settings: for pest or weed control at 40 ppm: 40 ppm (marked *)
From the text: A dash (-) indicates no test results.

Septoria nodorum = test: Test H: wheat glum blotch, preventive spray on wheat seedlings; settings: for pest or weed control at 200 ppm: read-out: Test H disease control rating, 200 ppm; for Test H disease control rating: 200 ppm
Description: (the causal agent of wheat glum blotch) and incubated in a saturated atmosphere at 20° C. for 48 h, and then moved to a growth chamber at 22° C. for 5 days, after which disease ratings were made.

[4] = Botrytis cinerea, in Solanum lycopersicum, topical, 72 h, read-out: Test E disease control rating
[5] = Phytophthora infestans, in Solanum lycopersicum, topical, 144 h, read-out: Test F disease control rating
[6] = Pythium aphanidermatum, 120 h, read-out: Test A disease control rating
[7] = Puccinia recondita, in Triticum aestivum, 192 h, read-out: Test K disease control rating
[8] = Zymoseptoria tritici, 528 h, 100 = 100% disease control, 0 = no control, read-out: Test J disease control rating

Row | Structure (SMILES) | Test G disease control rating (Rhizoctonia oryzae) | Test B disease control rating [1] | Test E disease control rating (Botrytis cinerea) | Test L disease control rating [2] | Test I disease control rating (fusarium graminearium) | Test F disease control rating (Phytophthora infestans) | Test D disease control rating (Plasmopara viticola) | Test A disease control rating (Pythium aphanidermatum) | Test K disease control rating [3] | Test J disease control rating (Septoria tritici; 200 ppm) | Test H disease control rating (Septoria nodorum) | also measured
1 | CCC(C)Cn1c(-c2c(F)cccc2F)c(Cl)nc(C(N)=O)c1=O (centres unmarked) [Compound 298, 6-Chloro-5-(2,6-difluorophenyl)-3,4-dihydro-4-(2-methylbutyl)-3-oxopyrazinecarboxamide] | – | – | – | – | – | – | – | – | – | – | – | pest or weed control at 200 ppm (Rhizoctonia oryzae; Waitea circinata, in Agrostis stolonifera, topical, 144 h, 100 = 100% disease control, 0 = no control): 78%; pest or weed control at 200 ppm ([1]; Colletotrichum orbiculare, in Cucumis sativus, 144 h, 100 = 100% disease control, 0 = no control): 66%; pest or weed control at 200 ppm (Botrytis cinerea; [4]): 99%; pest or weed control at 200 ppm ([2]; Blumeria graminis, in Triticum aestivum, 168 h, 100 = 100% disease control, 0 = no control): 89%; pest or weed control at 200 ppm (fusarium graminearium; Fusarium, in Triticum aestivum, topical, 192 h, 100 = 100% disease control, 0 = no control): 96%; pest or weed control at 200 ppm (Phytophthora infestans; [5]): 100%; pest or weed control at 200 ppm (Plasmopara viticola; Plasmopara viticola, 168 h, 100 = 100% disease control, 0 = no control, read-out: Test D disease control rating): 85%; pest or weed control at 200 ppm (Pythium aphanidermatum; [6]): 88%; pest or weed control at 200 ppm [3, 7]: 100%; pest or weed control at 200 ppm (Septoria tritici; Zymoseptoria tritici, 528 h, 200 ppm, 100 = 100% disease control, 0 = no control, read-out: Test J disease control rating): 100%; pest or weed control at 200 ppm (Septoria nodorum; Parastagonospora nodorum, in Triticum aestivum, topical, 168 h, 100 = 100% disease control, 0 = no control): 99%
2 | O=c1c(-n2cccn2)nc(Cl)c(-c2c(F)cc(F)cc2F)n1-c1cccc(F)c1 [Compound 324, 5-Chloro-1-(3-fluorophenyl)-3-(1H-pyrazol-1-yl)-6-(2,4,6-trifluorophenyl)-2(1H)-pyrazinone] | – | – | – | – | – | – | – | – | – | – | – | pest or weed control at 40 ppm (Rhizoctonia oryzae; Waitea circinata, in Agrostis stolonifera, topical, 144 h, read-out: Test G disease control rating, 40 ppm (marked *), 100 = 100% disease control, 0 = no control): 97%; pest or weed control at 40 ppm ([1]; Colletotrichum orbiculare, in Cucumis sativus, 144 h, read-out: Test B disease control rating, 40 ppm (marked *), 100 = 100% disease control, 0 = no control): 99%; pest or weed control at 40 ppm (Botrytis cinerea; [4]): 99%; pest or weed control at 40 ppm ([2]; Blumeria graminis, in Triticum aestivum, 168 h, read-out: Test L disease control rating, 40 ppm (marked *), 100 = 100% disease control, 0 = no control): 100%; pest or weed control at 40 ppm (fusarium graminearium; Fusarium, in Triticum aestivum, topical, 192 h, read-out: Test I disease control rating, 40 ppm (marked *), 100 = 100% disease control, 0 = no control): 49%; pest or weed control at 40 ppm (Phytophthora infestans; [5]): 0%; pest or weed control at 40 ppm (Plasmopara viticola; Plasmopara viticola, 168 h, 40 ppm (marked *), 100 = 100% disease control, 0 = no control, read-out: Test D disease control rating): 0%; pest or weed control at 40 ppm (Pythium aphanidermatum; [6]): 0%; pest or weed control at 40 ppm [3, 7]: 100%; pest or weed control at 40 ppm (Septoria tritici; [8]): 100%; pest or weed control at 40 ppm (Septoria nodorum; Parastagonospora nodorum, in Triticum aestivum, topical, 168 h, read-out: Test H disease control rating, 40 ppm (marked *), 100 = 100% disease control, 0 = no control): 100%
3 | CCC(C)c1c(Cl)nc(-n2cccn2)c(=O)n1CC(C)C (centres unmarked) [Compound 424, 5-Chloro-6-(1-methylpropyl)-1-(2-methylpropyl)-3-(1H-pyrazol-1-yl)-2(1H)-pyrazinone] | – | – | – | – | – | – | – | – | – | – | – | pest or weed control at 200 ppm (Rhizoctonia oryzae; Waitea circinata, in Agrostis stolonifera, topical, 144 h, 100 = 100% disease control, 0 = no control relative to controls): 99%; pest or weed control at 200 ppm ([1]; Colletotrichum orbiculare, in Cucumis sativus, 144 h, 100 = 100% disease control, 0 = no control relative to controls): 0%; pest or weed control at 200 ppm (Botrytis cinerea; [4]): 96%; pest or weed control at 200 ppm ([2]; Blumeria graminis, in Triticum aestivum, 168 h, 100 = 100% disease control, 0 = no control relative to controls): 100%; pest or weed control at 200 ppm (fusarium graminearium; Fusarium, in Triticum aestivum, topical, 192 h, 100 = 100% disease control, 0 = no control relative to controls): 0%; pest or weed control at 200 ppm (Phytophthora infestans; [5]): 0%; pest or weed control at 200 ppm (Plasmopara viticola; Plasmopara viticola, 168 h, 100 = 100% disease control, 0 = no control relative to controls, read-out: Test D disease control rating): 0%; pest or weed control at 200 ppm (Pythium aphanidermatum; [6]): 0%; pest or weed control at 200 ppm [3, 7]: 100%; pest or weed control at 40 ppm (Septoria tritici; [8]): 37%; pest or weed control at 200 ppm (Septoria nodorum; Parastagonospora nodorum, in Triticum aestivum, topical, 168 h, 100 = 100% disease control, 0 = no control relative to controls): 0%
4 | O=c1c(-n2cncn2)nc(Cl)c(-c2c(F)cccc2F)n1CC1CC1 [compound 17] | 99% | 0% | 100% | 99% | 94% | 0% | 54% | 0% | 100% | 87% | 100% | –
5 | CC(C)Cn1c(-c2ccc(Cl)cc2)c(Cl)nc(-n2cccn2)c1=O [compound 22] | 0% | 0% | 100% | 0% | 0% | 0% | 0% | 0% | 79% | 98% | 0% | –
6 | CCCC(C)n1c(-c2c(F)cccc2F)c(Cl)nc(-n2cccn2)c1=O (centres unmarked) [compound 25] | 100% | 100% | 99% | 100% | 0% | 0% | 0% | 0% | 100% | 100% | 100% | –
7 | CC(C)n1c(-c2c(F)cccc2F)c(Cl)nc(-n2cccn2)c1=O [compound 26] | 92% | 99% | 100% | 100% | 0% | 0% | 16% | 0% | 100% | 96% | 100% | –
8 | CCCn1c(-c2c(F)cccc2F)c(Cl)nc(-n2cccn2)c1=O [compound 27] | 67% | 99% | 100% | 100% | 0% | 0% | 47% | 0% | 100% | 100% | 100% | –
9 | CCCCCn1c(-c2c(F)cccc2F)c(Cl)nc(-n2cccn2)c1=O [compound 28] | 31% | 98% | 92% | 97% | 0% | 0% | 0% | 0% | 97% | 100% | 99% | –
10 | CC(C)C(C)n1c(-c2c(F)cccc2F)c(Cl)nc(-n2cccn2)c1=O (centres unmarked) [compound 29] | 95% | 99% | 80% | 98% | 0% | 0% | 0% | 0% | 100% | 100% | 99% | –
